Target: T1, Dimer of Gag-Pol polyprotein [489-587] (Human immunodeficiency virus 1, UniProt P12497)
T1 construct: 489-587
Test: Protease Inhibition Assay
Details: pH 5.5; 37 °C
Experimental: Inhibition of HIV protease was measured by assay of the cleavage of a fluorescent peptide substrate. The fluorescent product (2-aminobenzoyl-Ala-Thr-His-Gln-Val-Tyr) was separated from the fluorescent substrate by anion-exchange HPLC on a Mono-Q anion-exchange column (Pharmacia), and fluorescence was monitored at an excitation wavelength of 330 nm and an emission wavelength of 430 nm. Ki values for inhibitor binding were estimated at fixed concentrations of substrate and inhibitor from fractional activity measurements by use of the modified Michaelis-Menten equation.

**Q.** With O=C1N(CC2CC2)[C@H](Cc2cccs2)[C@H](O)[C@@H](O)[C@@H](Cc2cccs2)N1CC1CC1 [(4R,5S,6S,7R)-Hexahydro-5,6-dihydroxy-1,3-bis-(cyclopropylmethyl)-4,7-bis(2-thienylmethyl)-2H-1,3-diazapin-2-one] as the compound, how does the Ki read?
**A.** 9.1 nM

**Q.** Which Ki does the source give for O=C1N(Cc2ccc(CO)cc2)[C@H](Cc2ccncc2)[C@H](O)[C@@H](O)[C@@H](Cc2ccncc2)N1Cc1ccc(CO)cc1 [(4R,5S,6S,7R)-5,6-dihydroxy-1,3-bis({[4-(hydroxymethyl)phenyl]methyl})-4,7-bis(pyridin-4-ylmethyl)-1,3-diazepan-2-one] here?
**A.** 4.8 nM

**Q.** How did the Ki turn out when O=C1N(Cc2ccc(CO)cc2)[C@H](Cc2ccc(F)cc2)[C@H](O)[C@@H](O)[C@@H](Cc2ccc(F)cc2)N1Cc1ccc(CO)cc1 [(4R,5S,6S,7R)-Hexahydro-5,6-dihydroxy-1,3-bis-[[4-(hydroxymethyl)phenyl]methyl]-4,7-bis[(4-fluorophenyl)methyl]-2H-1,3-diazapin-2-one] was run?
**A.** 0.44 nM

**Q.** How did the Ki turn out when O=C(Nc1nc2ccccc2[nH]1)c1cccc(CN2C(=O)N(Cc3cccc(C(=O)Nc4nc5ccccc5[nH]4)c3)[C@H](Cc3ccccc3)[C@H](O)[C@@H](O)[C@H]2Cc2ccccc2)c1 [N-(1H-1,3-benzodiazol-2-yl)-3-{[(4R,5S,6S,7R)-3-{[3-(1H-1,3-benzodiazol-2-ylcarbamoyl)phenyl]methyl}-4,7-dibenzyl-5,6-dihydroxy-2-oxo-1,3-diazepan-1-yl]methyl}benzamide] was run?
**A.** 0.024 nM

**Q.** With O=C1N(Cc2ccc(CO)cc2)[C@H](Cc2ccc(F)c(F)c2)[C@H](O)[C@@H](O)[C@@H](Cc2ccc(F)c(F)c2)N1Cc1ccc(CO)cc1 [(4R,5S,6S,7R)-4,7-bis[(3,4-difluorophenyl)methyl]-5,6-dihydroxy-1,3-bis({[4-(hydroxymethyl)phenyl]methyl})-1,3-diazepan-2-one] as the compound, how does the Ki read?
**A.** 0.47 nM

**Q.** With CC(C)C[C@@H]1[C@H](O)[C@@H](O)[C@@H](CC(C)C)N(Cc2ccc(CO)cc2)C(=O)N1Cc1ccc(CO)cc1 [(4R,5S,6S,7R)-5,6-dihydroxy-1,3-bis({[4-(hydroxymethyl)phenyl]methyl})-4,7-bis(2-methylpropyl)-1,3-diazepan-2-one] as the compound, how does the Ki read?
**A.** 38 nM

**Q.** Which Ki does the source give for COc1ccc(C[C@@H]2[C@H](O)[C@@H](O)[C@@H](Cc3ccc(OC)cc3)N(Cc3ccc(CO)cc3)C(=O)N2Cc2ccc(CO)cc2)cc1 [(4R,5S,6S,7R)-Hexahydro-5,6-dihydroxy-1,3-bis-[[4-(hydroxymethyl)phenyl]methyl]-4,7-bis[(4-methoxyphenyl)methyl]-2H-1,3-diazapin-2-one] here?
**A.** 0.24 nM

**Q.** With CSCC[C@@H]1[C@H](O)[C@@H](O)[C@@H](CCSC)N(Cc2ccc(CO)cc2)C(=O)N1Cc1ccc(CO)cc1 [(4R,5S,6S,7R)-Hexahydro-5,6-dihydroxy-1,3-bis-[[4-(hydroxymethyl)phenyl]methyl]-4,7-bis[2-(methylthio)ethyl]-2H-1,3-diazapin-2-one] as the compound, how does the Ki read?
**A.** 3900 nM

**Q.** O=C1N(Cc2ccc(CO)cc2)[C@H](CC2CCCCC2)[C@H](O)[C@@H](O)[C@@H](CC2CCCCC2)N1Cc1ccc(CO)cc1 [(4R,5S,6S,7R)-4,7-bis(cyclohexylmethyl)-5,6-dihydroxy-1,3-bis({[4-(hydroxymethyl)phenyl]methyl})-1,3-diazepan-2-one] was tested. Which Ki did it give?
**A.** 32 nM

**Q.** How did the Ki turn out when COc1cccc(C[C@@H]2[C@H](O)[C@@H](O)[C@@H](Cc3cccc(OC)c3)N(Cc3ccc(CO)cc3)C(=O)N2Cc2ccc(CO)cc2)c1 [(4R,5S,6S,7R)-5,6-dihydroxy-1,3-bis({[4-(hydroxymethyl)phenyl]methyl})-4,7-bis[(3-methoxyphenyl)methyl]-1,3-diazepan-2-one] was run?
**A.** 0.11 nM
